The values below are quoted from earlier work in paper PMC10341550, “Beta-Secretase 1 Recruits Amyloid-Beta Precursor Protein to ROCK2 Kinase, Resulting in Erroneous Phosphorylation and Beta-Amyloid Plaque Formation” (International Journal of Molecular Sciences, 2023).

Holding throughout (details): cited from earlier work
For series [1], the system named is Aβ production in an AD mouse brain. An excerpt:
Alzheimer’s disease is currently the leading cause of dementia, with no effective treatment. […] Although Aβ cannot account for all features of Alzheimer’s disease, reducing Aβ production or accumulation is a major therapeutic strategy to confront the disease. The accumulation of Aβ peptides in senile plaques is the consequence of pathological processing of APP. There are two major pathways of APP processing: a non-amyloidogenic pathway invo ...

Series [2] has as its system ROCK2.
For series [3], the system named is protein kinase CK2α. An excerpt: Despite decades of intensive research, there is no efficient drug to prevent or cure Alzheimer’s disease. […] During the processing of APP, its cleavage by BACE1 is the rate-limiting step [16]; therefore, the inhibition of BACE1 could be a trivial solution. The development of small molecular inhibitors against BACE1 was set back with a series of unwanted side effects. Previously, it was shown that pharmacological inhibition of ROCK2 activity diminishes sAPPβ pro ...

Turning to `CN(C)CCOc1cc(-c2cn[nH]c2)ccc1NC(=O)C1COc2ccccc2O1` (stereo not drawn) [SR3677], the Aβ production result in series [1] is reported as “diminished the production of Aβ in an AD mouse brain”.
For the compound `CC(C)NC(=O)COc1cccc(-c2nc(Nc3ccc4[nH]ncc4c3)c3ccccc3n2)c1` [belumosudil], the “ROCK2 inhibition selectivity (in words)” value in series [2] is “highly selective”. The “inhibition of protein kinase CK2α (in words)” value in series [3] is “inhibition of the protein kinase CK2α”.
